Test results taken from patent publication US10155021B2, “Antimicrobial 4-oxoquinolizines” (Emergent Product Development Gaithersburg Inc., priority 2011, dated 2018).
≈ marks a conversion by molar mass, not a printed value. Where “and” joins values, the source holds several entries; their conditions need not be identical. Equal values may be shown once.

Key:
S. aureus 25923 = experiment: MIC, standard panel of Gram-positive and Gram-negative bacteria (CLSI); assay type: cell-based, Staphylococcus aureus; conditions: Staphylococcus aureus, 25923, read-out: MIC S. aureus 25923
S. aureus 25923 HS = experiment: as above; assay type: cell-based; conditions: Staphylococcus aureus, read-out: MIC S. aureus 25923 HS
S. aureus 101 = experiment: as above; assay type: cell-based, Staphylococcus aureus; conditions: Staphylococcus aureus, 101, read-out: MIC S. aureus 101
S. epidermis 12228 = experiment: as above; assay type: cell-based, Staphylococcus epidermis; conditions: Staphylococcus, 12228, read-out: MIC S. epidermis 12228
E. faecalis 29212 = experiment: as above; assay type: cell-based, Enterococcus faecalis; conditions: Enterococcus faecalis, 29212, read-out: MIC E. faecalis 29212
E. faecium 19434 = experiment: as above; assay type: cell-based, Enterococcus faecium; conditions: Enterococcus faecium, 19434, read-out: MIC E. faecium 19434
E. coli 25922 = experiment: as above; assay type: cell-based, Escherichia coli; conditions: Escherichia coli, 25922, read-out: MIC E. coli 25922
E. cloacae 13047 = experiment: as above; assay type: cell-based, Enterobacter cloacae; conditions: Enterobacter cloacae, 13047, read-out: MIC E. cloacae 13047
P. aeruginosa 27853 = experiment: as above; assay type: cell-based, Pseudomonas aeruginosa; conditions: Pseudomonas aeruginosa, 27853, read-out: MIC P. aeruginosa 27853
A. baumanii 19606 = experiment: as above; assay type: cell-based; conditions: Acinetobacter baumannii, 19606, read-out: MIC A. baumanii 19606
[1] = tested on: GN31 Acinetobacter baumannii; experiment: Chequerboard synergy with polymyxin B (FICI); assay type: cell-based
From the text: (§1) A chequerboard technique was used to identify possible synergistic or antagonistic interactions between the 4-oxoquinolizines compounds, levofloxacin and polymyxin B. Levofloxacin was included as a control. […] Final dilutions were made in Mueller-Hinton broth, the specific test medium used for MIC determinations according to CLSI guidelines (CLSI. Methods for Dilution Antimicrobial Susceptibility Tests for Bacteria That Grow Aerobically; Approved Standard-Eighth Edition (2009). CLSI Document M07-A8. CLSI, Wayne, Pa. 19087-1898, USA.). The test medium used was a cation-adjusted Mueller-Hinton Broth II (Becton Dickinson UK Ltd., Oxford Science Park, Oxford, UK, OX4 4DQ).
(§2) The compounds 2, 33 and 35, as well as levofloxacin were tested in combination with polymyxin B on the following isolates: GN31 Acinetobacter baumannii—antibiotic susceptible clinical isolate, GN52 Acinetobacter baumannii—levofloxacin resistant clinical isolate, GN56 Acinetobacter baumannii—levofloxacin resistant clinical isolate, GN48 Klebsiella pneumoniae—NCTC 13443—NDM-1-metallo-R-lactamase and GN10 Pseudomonas aeruginosa—ATCC 27853—antibiotic susceptible reference isolate. All isolates are from the collection maintained at Quotient Bioresearch Ltd., Cambridge, UK.
(§3) The MIC values for the compounds and polymyxin B and levofloxacin were determined by broth microdilution following CLSI guidelines, and the MICs of agents in combination were determined as described by Pillai et.al (Pillai S K, Moellering R C Jr, Eliopoulis G M; Antimicrobial Combinations in Antibiotics in Laboratory Medicine 5th Edition (V. Lorian Ed) (2005) p 365-440). Initial MIC results were used to determine the microtiter plate patterns for the chequerboards. A suitable doubling dilution concentration range was selected such that the combination antibiotic range was at least two concentrations above and four concentrations below the MIC for each isolate. A fixed range of 0.008 to 8 mg/L was tested for polymyxin B except in the case of A. baumannii GN31 where a range of 0.004 to 4 mg/L was tested when in combination with the compounds 2, 33 and 35 as well as levofloxacin.
(§4) From the raw data, fractional inhibitory concentration indices (FICI) were determined for the compounds of the invention and levofloxacin together with polymyxin B for each isolate as follows: FICI=FICX+FICY Where,
(§5) FICX=concentration of the combination antibiotic in a particular row÷MIC of the combination drug alone
(§6) FICY=MIC of polymyxin B in combination÷MIC of the polymyxin B alone
(§7) Additionally isobolograms were created to represent the same data visually. Here, the MIC of polymyxin B was plotted against every concentration of the combination antibiotic up to the MIC.

[2] = tested on: GN48 Klebsiella pneumoniae; experiment: Chequerboard synergy with polymyxin B (FICI); assay type: cell-based
From the text: as §1, §2, §3, §4, §5, §6, §7

[3] = tested on: GN52 Acinetobacter baumannii; experiment: Chequerboard synergy with polymyxin B (FICI); assay type: cell-based
From the text: as §1, §2, §3, §4, §5, §6, §7

[4] = tested on: GN56 Acinetobacter baumannii; experiment: Chequerboard synergy with polymyxin B (FICI); assay type: cell-based
From the text: as §1, §2, §3, §4, §5, §6, §7

Molecule | MIC (S. aureus 25923) [µg/mL] | MIC (S. aureus 25923 HS) [µg/mL] | MIC (S. aureus 101) [µg/mL] | MIC (S. epidermis 12228) [µg/mL] | MIC (E. faecalis 29212) [µg/mL] | MIC (E. faecium 19434) [µg/mL] | MIC (E. coli 25922) [µg/mL] | MIC (E. cloacae 13047) [µg/mL] | MIC (P. aeruginosa 27853) [µg/mL] | MIC (A. baumanii 19606) [µg/mL] | Polymyxin B MIC alone [1] | Polymyxin B MIC alone [2] [µg/mL] | Polymyxin B MIC alone [3] [µg/mL] | Polymyxin B MIC alone [4] [µg/mL]
CN[C@H](CC(C)C)C(=O)N[C@H]1C(=O)N[C@@H](CC(N)=O)C(=O)N[C@H]2C(=O)N[C@H]3C(=O)N[C@H](C(=O)N[C@H](C(=O)O)c4cc(O)cc(O)c4-c4cc3ccc4O)[C@H](O)c3ccc(c(Cl)c3)Oc3cc2cc(c3O[C@@H]2O[C@H](CO)[C@@H](O)[C@H](O)[C@H]2O[C@H]2C[C@](C)(N)[C@H](O)[C@H](C)O2)Oc2ccc(cc2Cl)[C@H]1O [Vancomycin, reference compound] | 2 (≈ 1.38 µM) | 2 (≈ 1.38 µM) | 2 (≈ 1.38 µM) | 2 (≈ 1.38 µM) | 2 (≈ 1.38 µM) | 1 (≈ 0.69 µM) | > 128 | > 128 | > 128 | > 128 | – | – | – | –
Polymyxin B | – | – | – | – | – | – | – | – | – | – | 0.25 µg/mL and 0.5 µg/mL | 0.5 | 0.5 | 0.5
